Columns and labels:
[1] = In vitro stability in mouse plasma; type: in vitro ADME
Source text: (§1) Liquid chromatography and mass spectrometry (LCMS/MS): The ultra-performance liquid chromatography mass spectrometry system (UPLC-MS/MS) consisted of a Shimadzu 8060NX mass spectrometer and Nexera Series UPLC (Shimadzu Scientific Instruments, Columbia, MD). Analyte separation was achieved utilizing an Acquity UPLC® BEH column (C18, 2.1×100 mm, 1.7 μm) equipped with an Acquity UPLC C18 guard column (Waters, Inc. Milford MA). The mobile phase consisted of water containing 0.1% formic acid (mobile phase A) and methanol (mobile phase B) at a flow rate of 0.25 mL/min operated at room temperature. The total run time was set to last 7.5 min with a gradient elution as follows: 35% B, increasing to 95% B over 3.5 minutes, then held constant for 3.0 minutes, and finally brought back to the initial condition of 35% B in 0.20 minutes followed by 1-minute re-equilibration. The injection volume (2 μL) was consistent for all samples. The auto-sampler chamber was maintained at 4° C. throughout the analysis.
Plasma sample preparation: Plasma samples were prepared by spiking 5 μL of the appropriate calibration (CC) and quality (QCs) control working stock into a 45 μL blank mouse plasma. The concentration of the CC ranged from 0.2-1000 ng/mL with the final concentrations of 0.2, 0.5, 1, 5, 10, 50, 100, 500, and 1000 ng/mL. A simple protein precipitation technique using Phree 96 well phospholipid elimination plate (Phenomenex Inc, Torrance CA.) was utilized to isolate analyte from the plasma matrix. The CC, QCs and study plasma samples were added to Phree 96 well plate and spiked with 10 μL of IS a working solution. The precipitation of the matrix proteins was carried out using 300 μL of ice-cold acetonitrile. The plate was again vortexed on mixmate at 950 rpm for 2 min followed by applied 5 psi positive pressure for 10 min (Resprep VM-96 Vacuum Manifold for 96-Well Plates, Catalog #25858) (Restek; Bellefonte, PA) to collect the supernatant. Two microliters of the reconstituted sample was injected into LC-MS/MS for analysis. […]

[2] = In vitro stability in simulated intestinal fluid (SIF); type: in vitro ADME; conditions: SIF for 2 h
Experimental: (§2) In vitro stability studies: Gastrointestinal (GI) fluid stability studies were performed in simulated gastric fluid (SGF) and simulated intestinal fluid (SIF). All the required media were prepared according to the USP guidelines. Mouse plasma stability were performed for neat-spiked and plasma spiked samples (pre-extraction) at 37° C. for 4 h. In addition to the analyte stability in matrix, at 48 h stability of the extracted samples was performed at 4° C. in the autosampler.

[3] = In vitro stability in simulated gastric fluid (SGF); type: in vitro ADME; conditions: SGF for 1 h
Experimental: as §2

[4] = In vivo pharmacokinetic study, oral gavage; design: species or system BALB/c mice
Source text: as §1
The MS/MS system was operated at unit resolution in the multiple reaction monitoring (MRM) in positive ESI mode, using precursor ion>product ion combinations of 427.20>105.10 for A1-r and 413.15>265.10 m/z for 4r. The mass spectrometer source settings were optimized to the following: nebulizer gas: 2.0 L/min; heating gas: 10 L/min; drying gas: 10 L/min; interface temperature: 300° C.; desolvation line temperature: 250° C.; heat block temperature: 400° C. Data acquisition and quantitation were performed using LabSolutions software Ver.5.99 (Shimadzu Scientific Inc, Columbia, MD).
Plasma sample preparation: Plasma samples were prepared by spiking 5 μL of the appropriate calibration (CC) and quality (QCs) control working stock into a 45 μL blank mouse plasma. The concentration of the CC ranged from 0.2-1000 ng/mL with the final concentrations of 0.2, 0.5, 1, 5, 10, 50, 100, 500, and 1000 ng/mL. A simple protein precipitation technique using Phree 96 well phospholipid elimination plate (Phenomenex Inc, Torrance CA.) was utilized to isolate analyte from the plasma matrix. The CC, QCs and study plasma samples were added to Phree 96 well plate and spiked with 10 μL of IS a working solution. The precipitation of the matrix proteins was carried out using 300 μL of ice-cold acetonitrile. The plate was again vortexed on mixmate at 950 rpm for 2 min followed by applied 5 psi positive pressure for 10 min (Resprep VM-96 Vacuum Manifold for 96-Well Plates, Catalog #25858) (Restek; Bellefonte, PA) to collect the supernatant. Two microliters of the reconstituted sample was injected into LC-MS/MS for analysis.
In vivo pharmacokinetic studies: Animal studies were approved by the University of Nebraska Medical Center (UNMC) Institutional Animal Care and Use Committee (IACUC protocol number 17-046-06-FC). BALB/c mice were purchased from Charles River Labs. Pharmacokinetic (PK) studies of A1-r and 4r were conducted in BALB/c mice. Animals were housed in the University of Nebraska Medical Center animal facility, for at least 7 days prior to the experiments, in order to acclimatize the animals to the laboratory conditions, at a temperature of 23-24° C., relative humidity of 40-70% and 12/12 h light/dark cycles with free access to food and water. The dosing solution was made of DMSO-Polyethylene glycol 400 (PEG400)-Propylene glycol (PG)-EtOH-Cremophore-PBS (2/20/10/10/5/53% v/v). Compound A1-r or 4r (10 mg/kg) was administered separately by oral gavage. After dosing, approximately 50 μL of blood was collected from the maxillary vein at 5, 15, 30 minutes and 1, 2, 7, and 24 hr (5 mice/group/per time point). A total of three blood samples were collected, with the third blood sample a terminal collection. Plasma was separated by centrifugation at 4,000×g at 4° C. for 10 minutes. The collected plasma samples were stored at −80° C. until analysis. […]

[5] = In vitro metabolic stability in mouse liver microsomes; type: in vitro ADME; conditions: 1 μg/mL
Experimental: (§3) In vitro metabolic stability in liver microsomes: Metabolic stability was assessed using mouse and human liver microsomes, (XenoTech, LLC, Lenexa, KS). Incubation of A1-r and 4r with the microsome fractions was performed in triplicate utilizing a concentration of 1 μg/mL as previously described. Serial samples (40 μL) were collected at selected time intervals and quenched with 300 μL of acetonitrile and then spiked with 10 μL of IS (0.5 μg/mL). All the samples were vortexed and centrifuged at 13,000×g for 15 min, and the supernatant was collected and transferred to an autosampler vial and injected (2 μL) onto the LC-MS/MS system. Testosterone, 7-HC and diclofenac were used as positive controls to ensure that the microsomes and incubation conditions were appropriate to conduct metabolism studies.

[6] = In vitro metabolic stability in human liver microsomes; type: in vitro ADME; conditions: 1 μg/mL
Experimental: as §3

[7] = test system: 22Rv1 tumor xenograft model of prostate cancer; assay: 22Rv1 tumor xenograft study; type: in vivo, NSG mice
Experimental: Tumor xenograft study: All animal experiments were carried out according to approved Institutional Animal Care and Use Committee protocols at the University of Texas Southwestern Medical Center (Dallas, TX). Five-week-old female NSG mice (low circulating testosterone) were implanted with 3×10^6 22 Rv1 cells (ATCC, mycoplasma negative) in matrigel. When tumor volume reached approximately 125 mm^3 (day 11), mice were randomly divided into three groups of six mice. One group was treated with vehicle control PO (0.5% Methocel A4M+0.1% Tween 80)+vehicle IP (10% DMSO/10% cremophor EL/80% D5W). One group was treated with vehicle PO+IP 25 mg/kg A1-r in 10% DMSO/10% cremophor EL/80% D5W. One group was treated with vehicle PO+IP 50 mg/kg 4r in 10% DMSO/10% cremophor EL/80% D5W. Dosing was continued for a total of 26 days. Tumor volumes were measured twice a week with Vernier calipers, and tumor volume was calculated as (L×W^2)×3.14)/6 as previously reported. 2-3 hours after a final IP dose, animals were humanely euthanized, and tumors were collected, weighed, and frozen in liquid nitrogen after taking pictures.

[8] = after oral administration (10 mg/kg) of 4r, Balb/c mice, plasma, mean ± SD, n = 5

time until reduced to below detectable limits in mouse plasma ([1]; exposure to mouse plasma): ≤ 30 min
stability in mouse plasma ([1]; mouse plasma, 37° C.): unstable
stability in simulated intestinal fluid (SIF) [2]: stable
stability in simulated gastric fluid (SGF) [3]: stable
AUC0-t [4, 8]: 0.036416 µg·h/mL
Cmax [4, 8]: 0.092796 µg/mL
Tmax [4, 8]: 19 min
detection in systemic circulation 1 hour post administration ([4]; oral 10 mg/Kg 4r, 1 hour post administration): undetectable
degraded in MLM [5]: approximately 25%
degraded in HLM [6]: approximately 25%
Compound: COC(=O)/C=C/c1cc(C(=O)NCc2ccc(C)cc2)cc(-c2ccc3ncnn3c2)c1 [Compound 4r, Methyl (E)-3-(3-([1,2,4]triazolo[1,5-a]pyridin-6-yl)-5-((4-methylbenzyl)carbamoyl)phenyl)acrylate]
reduction of tumor volume ([7]; 25 mg/Kg IP once a day for 26 days, 22Rv1 tumors in NSG mice): approximately 30%
reduction of tumor burden ([7]; 50 mg/Kg IP once a day for 26 days, 22Rv1 tumors in NSG mice): approximately 45%
mouse body weight ([7]; 25 and 50 mg/Kg IP once a day for 26 days, NSG 22Rv1 tumor-bearing mice): no observed loss of mouse body weight

From US20260035340A1, “INHIBITORS OF AKR1C3 AND METHODS OF USE” (BOARD OF REGENTS OF THE UNIVERSITY OF NEBRASKA, priority 2022, published 2026)
